According to paper PMC11714696 (2024):

Legend:
[1] = tested on: poly(A·U) (RNA, polymer) A/U; experiment: UV melting at 260 nm; conditions: Na+ (25 mM NaCl, 10 mM sodium cacodylate); 10 mM cacodylate pH 7.0; 10 and 15 μM Nile blue; free Tm about 46.0 °C
[2] = tested on: poly(I·C) (RNA, polymer, inosine (hypoxanthine base) at every position of strand 1 (written as G)) G/C; experiment: UV melting at 260 nm; conditions: Na+ (25 mM NaCl, 10 mM sodium cacodylate); 10 mM cacodylate pH 7.0; 10 and 15 μM Nile blue; free Tm about 48.0 °C
[3] = tested on: poly(A·U) (RNA, polymer) A/U; experiment: absorption titration, Benesi-Hildebrand; conditions: Na+ (25 mM NaCl, 10 mM sodium cacodylate); 10 mM cacodylate pH 7.0, 0.1 mM Na2EDTA; RNA concentration by ε260 14280; per base
[4] = tested on: poly(I·C) (RNA, polymer, inosine (hypoxanthine base) at every position of strand 1 (written as G)) G/C; experiment: absorption titration, Benesi-Hildebrand; conditions: Na+ (25 mM NaCl, 10 mM sodium cacodylate); 10 mM cacodylate pH 7.0, 0.1 mM Na2EDTA; RNA concentration by ε260 10000; per base
[5] = tested on: poly(A·U) (RNA, polymer) A/U; experiment: fluorescence titration, Benesi-Hildebrand; conditions: Na+ (25 mM NaCl, 10 mM sodium cacodylate); 10 mM cacodylate pH 7.0, 0.1 mM Na2EDTA; RNA concentration by ε260 14280; per base
[6] = tested on: poly(I·C) (RNA, polymer, inosine (hypoxanthine base) at every position of strand 1 (written as G)) G/C; experiment: fluorescence titration, Benesi-Hildebrand; conditions: Na+ (25 mM NaCl, 10 mM sodium cacodylate); 10 mM cacodylate pH 7.0, 0.1 mM Na2EDTA; RNA concentration by ε260 10000; per base

CC[N+](CC)=c1ccc2nc3c(cc(N)c4ccccc43)oc-2c1
binding [1]: yes | binding [2]: yes | KBH [3]: 586000 M⁻¹ | KBH [4]: 116000 M⁻¹ | KBH [5]: 211000 M⁻¹ | KBH [6]: 113000 M⁻¹
